Molecular target: T1, mPGES-1 (microsomal prostaglandin E synthase-1) (Homo sapiens, UniProt O14684)
T1 construct: gene PTGES
T1 sequence (O14684 1-152): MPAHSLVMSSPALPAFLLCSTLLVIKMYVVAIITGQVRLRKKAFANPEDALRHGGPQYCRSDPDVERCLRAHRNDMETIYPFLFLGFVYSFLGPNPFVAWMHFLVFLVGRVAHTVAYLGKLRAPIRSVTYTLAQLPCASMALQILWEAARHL
Assay: CETSA in U87 cell lysates (temperature- and dose-dependent), plus enzyme activity inhibition IC50
Assay type: cell-based

Which IC50 does the source give for `O=C(/C=C/c1ccc(O)cc1)c1ccc(O)cc1O` [ISL, isoliquiritigenin] here?
The IC50 was 17.4 µM.

Reference: article PMC6704644 (Journal of Experimental & Clinical Cancer Research : CR, 2019)
